Source: the kinase profiling compilation of Christmann-Franck et al. (2016)

Assays:
Experiment in all cases: radiometric filter-binding kinase assay, Kinase HotSpot
Details in all cases: compound 0.5 µM; ATP 10 µM
RPS6KA3 KD1 KD2 (human) = RPS6KA3 KD1 KD2 (human) (UniProt P51812)
RPS6KA6 KD1 KD2 (human) = RPS6KA6 KD1 KD2 (human) (UniProt Q9UK32)
CDC42BPA (human) = CDC42BPA (human) (UniProt Q5VT25)
MUSK (human) = MUSK (human) (UniProt O15146)
ROS1 (human) = ROS1 (human) (UniProt P08922)
MLTK (human) = MLTK (human) (UniProt Q9NYL2)
ADRBK2 (human) = ADRBK2 (human) (UniProt P35626)
NEK3 (human) = NEK3 (human) (UniProt P51956)
PAK4 (human) = PAK4 (human) (UniProt O96013)
IRAK1 (human) = IRAK1 (human) (UniProt P51617)
DYRK2 (human) = DYRK2 (human) (UniProt Q92630)
SRMS (human) = SRMS (human) (UniProt Q9H3Y6)
PNCK (human) = PNCK (human) (UniProt Q6P2M8)
PDGFRA (human) = PDGFRA (human) (UniProt P16234)
MARK2 (human) = MARK2 (human) (UniProt Q7KZI7)
NEK9 (human) = NEK9 (human) (UniProt Q8TD19)
NUAK2 (human) = NUAK2 (human) (UniProt Q9H093)
CAMK2G (human) = CAMK2G (human) (UniProt Q13555)
ZAP70 (human) = ZAP70 (human) (UniProt P43403)
VRK1 (human) = VRK1 (human) (UniProt Q99986)
STK17A (human) = STK17A (human) (UniProt Q9UEE5)
MELK (human) = MELK (human) (UniProt Q14680)
FGFR2 (human) = FGFR2 (human) (UniProt P21802)
NUAK1 (human) = NUAK1 (human) (UniProt O60285)
PASK (human) = PASK (human) (UniProt Q96RG2)
HIPK3 (human) = HIPK3 (human) (UniProt Q9H422)
PAK7 (human) = PAK7 (human) (UniProt Q9P286)
NEK2 (human) = NEK2 (human) (UniProt P51955)
GRK5 (human) = GRK5 (human) (UniProt P34947)
CAMK1G (human) = CAMK1G (human) (UniProt Q96NX5)
EPHA2 (human) = EPHA2 (human) (UniProt P29317)
STK39 (human) = STK39 (human) (UniProt Q9UEW8)
RPS6KA1 KD1 KD2 (human) = RPS6KA1 KD1 KD2 (human) (UniProt Q15418)
TAOK3 (human) = TAOK3 (human) (UniProt Q9H2K8)
CSNK1G3 (human) = CSNK1G3 (human) (UniProt Q9Y6M4)
PRKD2 (human) = PRKD2 (human) (UniProt Q9BZL6)
MAPK11 (human) = MAPK11 (human) (UniProt Q15759)
IRAK4 (human) = IRAK4 (human) (UniProt Q9NWZ3)
CAMK2D (human) = CAMK2D (human) (UniProt Q13557)
ROCK2 (human) = ROCK2 (human) (UniProt O75116)
EPHA3 (human) = EPHA3 (human) (UniProt P29320)
EPHB1 (human) = EPHB1 (human) (UniProt P54762)

Sequence of EPHA2 (human) (P29317 whole entry, looked up): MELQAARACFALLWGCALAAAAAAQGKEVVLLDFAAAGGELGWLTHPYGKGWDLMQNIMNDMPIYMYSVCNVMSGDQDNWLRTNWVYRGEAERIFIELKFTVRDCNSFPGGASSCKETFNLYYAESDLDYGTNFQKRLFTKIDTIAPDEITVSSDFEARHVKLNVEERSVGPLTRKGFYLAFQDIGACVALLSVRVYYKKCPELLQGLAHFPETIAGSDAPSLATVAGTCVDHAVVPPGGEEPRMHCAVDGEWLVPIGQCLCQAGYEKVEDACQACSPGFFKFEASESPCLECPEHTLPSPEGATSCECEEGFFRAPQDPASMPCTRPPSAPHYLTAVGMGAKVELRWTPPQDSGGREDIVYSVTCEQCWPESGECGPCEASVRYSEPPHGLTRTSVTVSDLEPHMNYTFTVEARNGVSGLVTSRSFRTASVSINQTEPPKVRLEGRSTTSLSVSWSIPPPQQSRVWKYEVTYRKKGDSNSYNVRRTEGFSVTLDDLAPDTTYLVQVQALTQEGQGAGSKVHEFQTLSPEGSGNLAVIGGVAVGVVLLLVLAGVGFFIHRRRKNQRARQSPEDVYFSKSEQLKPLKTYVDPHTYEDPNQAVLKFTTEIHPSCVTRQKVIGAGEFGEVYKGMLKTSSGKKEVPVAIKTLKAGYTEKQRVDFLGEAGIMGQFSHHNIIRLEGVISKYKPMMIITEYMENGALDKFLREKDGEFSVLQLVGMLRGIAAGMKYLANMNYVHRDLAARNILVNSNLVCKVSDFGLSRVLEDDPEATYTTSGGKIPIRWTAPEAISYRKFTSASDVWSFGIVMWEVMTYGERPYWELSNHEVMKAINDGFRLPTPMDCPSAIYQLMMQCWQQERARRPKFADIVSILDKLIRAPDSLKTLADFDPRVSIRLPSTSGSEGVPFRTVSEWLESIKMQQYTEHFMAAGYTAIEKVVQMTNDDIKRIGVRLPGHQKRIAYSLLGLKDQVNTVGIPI
Sequence of SRMS (human) (Q9H3Y6 whole entry, looked up): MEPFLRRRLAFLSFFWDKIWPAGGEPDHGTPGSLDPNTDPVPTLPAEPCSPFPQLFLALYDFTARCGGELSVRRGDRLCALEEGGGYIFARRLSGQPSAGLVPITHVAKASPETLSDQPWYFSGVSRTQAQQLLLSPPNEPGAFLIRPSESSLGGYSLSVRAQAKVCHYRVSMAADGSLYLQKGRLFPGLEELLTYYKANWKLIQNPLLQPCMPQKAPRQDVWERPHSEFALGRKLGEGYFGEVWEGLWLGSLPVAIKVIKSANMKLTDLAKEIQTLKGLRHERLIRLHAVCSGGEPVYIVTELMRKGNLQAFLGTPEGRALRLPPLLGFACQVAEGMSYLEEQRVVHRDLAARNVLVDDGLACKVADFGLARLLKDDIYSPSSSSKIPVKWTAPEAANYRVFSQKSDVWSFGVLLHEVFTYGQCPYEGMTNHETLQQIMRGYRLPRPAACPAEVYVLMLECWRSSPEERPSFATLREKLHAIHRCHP
Sequence of RPS6KA3 KD1 KD2 (human) (P51812 whole entry, looked up): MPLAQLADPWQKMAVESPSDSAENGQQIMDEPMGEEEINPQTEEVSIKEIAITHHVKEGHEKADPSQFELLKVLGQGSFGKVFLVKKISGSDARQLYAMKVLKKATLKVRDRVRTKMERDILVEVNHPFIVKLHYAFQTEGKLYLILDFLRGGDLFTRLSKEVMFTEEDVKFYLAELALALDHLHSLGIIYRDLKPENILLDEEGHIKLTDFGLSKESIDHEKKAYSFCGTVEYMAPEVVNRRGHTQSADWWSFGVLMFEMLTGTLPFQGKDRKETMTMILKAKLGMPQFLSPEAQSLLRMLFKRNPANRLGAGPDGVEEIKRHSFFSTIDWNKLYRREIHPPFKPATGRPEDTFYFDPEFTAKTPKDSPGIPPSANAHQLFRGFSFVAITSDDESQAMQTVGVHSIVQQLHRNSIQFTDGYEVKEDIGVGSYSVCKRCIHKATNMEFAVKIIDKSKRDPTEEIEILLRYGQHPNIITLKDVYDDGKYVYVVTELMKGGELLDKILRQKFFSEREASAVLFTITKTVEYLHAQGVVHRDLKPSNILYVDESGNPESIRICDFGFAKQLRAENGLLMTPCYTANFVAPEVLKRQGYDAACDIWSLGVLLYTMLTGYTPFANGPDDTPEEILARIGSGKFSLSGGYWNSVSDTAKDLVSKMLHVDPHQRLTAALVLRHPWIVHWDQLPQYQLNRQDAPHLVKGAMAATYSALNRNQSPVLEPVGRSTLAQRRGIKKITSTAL
Sequence of ROS1 (human) (P08922 whole entry, looked up): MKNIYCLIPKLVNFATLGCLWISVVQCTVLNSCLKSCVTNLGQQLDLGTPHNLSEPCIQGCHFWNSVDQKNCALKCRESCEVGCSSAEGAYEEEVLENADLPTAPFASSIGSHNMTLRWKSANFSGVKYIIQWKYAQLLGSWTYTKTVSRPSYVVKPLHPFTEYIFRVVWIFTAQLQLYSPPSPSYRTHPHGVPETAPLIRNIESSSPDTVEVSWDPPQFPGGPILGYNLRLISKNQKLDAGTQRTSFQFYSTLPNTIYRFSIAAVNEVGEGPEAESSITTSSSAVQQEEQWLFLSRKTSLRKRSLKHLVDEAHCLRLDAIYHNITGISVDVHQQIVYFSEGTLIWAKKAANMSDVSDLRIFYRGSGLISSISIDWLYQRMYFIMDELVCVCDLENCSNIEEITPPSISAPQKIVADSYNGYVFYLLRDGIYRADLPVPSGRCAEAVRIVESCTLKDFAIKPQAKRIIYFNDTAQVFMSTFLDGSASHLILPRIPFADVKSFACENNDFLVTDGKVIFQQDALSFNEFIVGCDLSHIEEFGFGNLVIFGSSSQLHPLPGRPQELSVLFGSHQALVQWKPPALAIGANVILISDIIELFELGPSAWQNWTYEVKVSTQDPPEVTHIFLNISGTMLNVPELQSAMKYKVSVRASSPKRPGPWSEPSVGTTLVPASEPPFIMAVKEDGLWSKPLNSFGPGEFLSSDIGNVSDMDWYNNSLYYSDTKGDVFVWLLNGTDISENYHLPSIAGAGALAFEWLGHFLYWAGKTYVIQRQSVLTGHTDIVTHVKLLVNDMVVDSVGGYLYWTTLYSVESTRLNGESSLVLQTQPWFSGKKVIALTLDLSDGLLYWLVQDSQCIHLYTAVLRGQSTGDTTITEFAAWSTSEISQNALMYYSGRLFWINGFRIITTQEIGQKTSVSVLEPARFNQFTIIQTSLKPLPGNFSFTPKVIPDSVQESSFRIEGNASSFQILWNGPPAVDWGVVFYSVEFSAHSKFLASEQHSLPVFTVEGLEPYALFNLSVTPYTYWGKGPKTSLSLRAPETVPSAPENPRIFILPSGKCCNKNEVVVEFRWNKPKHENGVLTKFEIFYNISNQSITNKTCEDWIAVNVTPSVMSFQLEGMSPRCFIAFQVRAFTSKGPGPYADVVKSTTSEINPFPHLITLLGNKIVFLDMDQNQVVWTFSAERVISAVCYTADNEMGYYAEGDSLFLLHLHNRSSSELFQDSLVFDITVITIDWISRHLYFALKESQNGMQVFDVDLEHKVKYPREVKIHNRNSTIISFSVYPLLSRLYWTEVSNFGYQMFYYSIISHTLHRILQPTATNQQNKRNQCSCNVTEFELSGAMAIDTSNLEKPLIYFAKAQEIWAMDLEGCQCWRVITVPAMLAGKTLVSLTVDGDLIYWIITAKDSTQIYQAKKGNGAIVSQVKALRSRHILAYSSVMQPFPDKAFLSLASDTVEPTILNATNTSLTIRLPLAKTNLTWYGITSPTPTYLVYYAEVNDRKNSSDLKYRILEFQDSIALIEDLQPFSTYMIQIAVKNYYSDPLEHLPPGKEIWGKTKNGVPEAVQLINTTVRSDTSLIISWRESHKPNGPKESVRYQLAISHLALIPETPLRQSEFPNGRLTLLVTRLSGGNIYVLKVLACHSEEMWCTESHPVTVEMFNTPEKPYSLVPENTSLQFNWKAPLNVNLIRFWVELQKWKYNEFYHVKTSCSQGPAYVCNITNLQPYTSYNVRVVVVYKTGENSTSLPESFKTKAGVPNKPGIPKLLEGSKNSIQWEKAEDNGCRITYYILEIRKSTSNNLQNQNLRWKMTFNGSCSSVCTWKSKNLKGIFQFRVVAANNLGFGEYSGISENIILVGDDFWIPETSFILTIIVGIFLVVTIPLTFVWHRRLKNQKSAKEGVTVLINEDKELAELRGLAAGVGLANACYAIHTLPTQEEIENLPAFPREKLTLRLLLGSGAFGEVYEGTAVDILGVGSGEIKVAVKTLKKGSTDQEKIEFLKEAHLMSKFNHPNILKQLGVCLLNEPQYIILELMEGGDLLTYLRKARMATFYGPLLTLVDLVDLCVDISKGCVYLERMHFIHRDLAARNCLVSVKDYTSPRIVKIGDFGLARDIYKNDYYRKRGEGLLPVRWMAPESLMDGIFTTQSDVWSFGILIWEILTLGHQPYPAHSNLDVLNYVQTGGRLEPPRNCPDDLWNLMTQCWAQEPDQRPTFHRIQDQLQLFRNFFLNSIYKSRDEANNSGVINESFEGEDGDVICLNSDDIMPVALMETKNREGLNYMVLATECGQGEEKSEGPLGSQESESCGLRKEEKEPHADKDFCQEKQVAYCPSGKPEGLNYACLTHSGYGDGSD
Sequence of MAPK11 (human) (Q15759 whole entry, looked up): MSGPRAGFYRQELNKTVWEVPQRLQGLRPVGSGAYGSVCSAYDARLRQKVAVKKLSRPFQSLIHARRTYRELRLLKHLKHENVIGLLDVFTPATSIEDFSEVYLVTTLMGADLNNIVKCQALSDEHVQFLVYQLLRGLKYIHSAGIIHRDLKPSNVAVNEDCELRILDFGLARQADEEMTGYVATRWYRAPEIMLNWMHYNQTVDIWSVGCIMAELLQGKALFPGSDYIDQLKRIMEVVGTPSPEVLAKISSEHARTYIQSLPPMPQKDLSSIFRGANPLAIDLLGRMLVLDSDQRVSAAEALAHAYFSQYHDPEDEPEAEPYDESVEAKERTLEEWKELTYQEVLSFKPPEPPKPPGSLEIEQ

Which results are given for O=c1c2ccccc2[nH]c(=S)n1CCN1CCC(=C(c2ccc(F)cc2)c2ccc(F)cc2)CC1?
residual activity (RPS6KA3 KD1 KD2 (human)): 99.8%; residual activity (RPS6KA6 KD1 KD2 (human)): 101%; residual activity (CDC42BPA (human)): 97.7%; residual activity (MUSK (human)): 93.6%; residual activity (ROS1 (human)): 98.8%; residual activity (MLTK (human)): 98.6%; residual activity (ADRBK2 (human)): 102%; residual activity (NEK3 (human)): 94%; residual activity (PAK4 (human)): 101%; residual activity (IRAK1 (human)): 106%; residual activity (DYRK2 (human)): 95.4%; residual activity (SRMS (human)): 96.7%; residual activity (PNCK (human)): 109%; residual activity (PDGFRA (human)): 97%; residual activity (MARK2 (human)): 108%; residual activity (NEK9 (human)): 97%; residual activity (NUAK2 (human)): 106%; residual activity (CAMK2G (human)): 97.9%; residual activity (ZAP70 (human)): 98%; residual activity (VRK1 (human)): 95.9%; residual activity (STK17A (human)): 103%; residual activity (MELK (human)): 104%; residual activity (FGFR2 (human)): 101%; residual activity (NUAK1 (human)): 102%; residual activity (PASK (human)): 99%; residual activity (HIPK3 (human)): 97.7%; residual activity (PAK7 (human)): 97.4%; residual activity (NEK2 (human)): 100%; residual activity (GRK5 (human)): 103%; residual activity (CAMK1G (human)): 104%; residual activity (EPHA2 (human)): 105%; residual activity (STK39 (human)): 96.8%; residual activity (RPS6KA1 KD1 KD2 (human)): 97.9%; residual activity (TAOK3 (human)): 92.4%; residual activity (CSNK1G3 (human)): 97.1%; residual activity (PRKD2 (human)): 98.9%; residual activity (MAPK11 (human)): 99.3%; residual activity (IRAK4 (human)): 105%; residual activity (CAMK2D (human)): 97.9%; residual activity (ROCK2 (human)): 98.8%; residual activity (EPHA3 (human)): 101%; residual activity (EPHB1 (human)): 100%

With FC(F)(F)c1ccc(/C=C/c2nc(COc3ccc(CCCCn4ccnn4)cc3)co2)cc1 as the compound, how does the residual activity (RPS6KA3 KD1 KD2 (human)) read?
The residual activity was 96.8%.

And the residual activity (RPS6KA6 KD1 KD2 (human))?
Its residual activity is 100%.

And the residual activity (CDC42BPA (human))?
The residual activity was 103%.

What about the residual activity (MUSK (human)) of the same compound?
The residual activity was 104%.

What about the residual activity (ROS1 (human)) of the same compound?
The residual activity was 93.3%.

And the residual activity (MLTK (human))?
Its residual activity is 98.5%.

What about the residual activity (ADRBK2 (human)) of the same compound?
Its residual activity is 104%.

What about the residual activity (NEK3 (human)) of the same compound?
The residual activity was 100%.

What about the residual activity (PAK4 (human)) of the same compound?
The residual activity was 107%.

And the residual activity (IRAK1 (human))?
The residual activity was 99.5%.

What about the residual activity (DYRK2 (human)) of the same compound?
The residual activity was 110%.

And the residual activity (SRMS (human))?
Its residual activity is 93.5%.

What about the residual activity (PNCK (human)) of the same compound?
The residual activity was 96.6%.

What about the residual activity (PDGFRA (human)) of the same compound?
Its residual activity is 104%.

And the residual activity (MARK2 (human))?
The residual activity was 105%.

And the residual activity (NEK9 (human))?
Its residual activity is 95.5%.

What about the residual activity (NUAK2 (human)) of the same compound?
The residual activity was 101%.

What about the residual activity (CAMK2G (human)) of the same compound?
The residual activity was 99%.

What about the residual activity (ZAP70 (human)) of the same compound?
Its residual activity is 115%.

And the residual activity (VRK1 (human))?
Its residual activity is 99.8%.

What about the residual activity (STK17A (human)) of the same compound?
The residual activity was 103%.

And the residual activity (MELK (human))?
Its residual activity is 85.4%.

And the residual activity (FGFR2 (human))?
The residual activity was 96.7%.

And the residual activity (NUAK1 (human))?
The residual activity was 103%.

What about the residual activity (PASK (human)) of the same compound?
Its residual activity is 104%.

What about the residual activity (HIPK3 (human)) of the same compound?
The residual activity was 100%.

What about the residual activity (PAK7 (human)) of the same compound?
Its residual activity is 89.4%.

What about the residual activity (NEK2 (human)) of the same compound?
The residual activity was 96.2%.

And the residual activity (GRK5 (human))?
Its residual activity is 109%.

What about the residual activity (CAMK1G (human)) of the same compound?
Its residual activity is 95%.

And the residual activity (EPHA2 (human))?
The residual activity was 102%.

And the residual activity (STK39 (human))?
Its residual activity is 88.3%.

What about the residual activity (RPS6KA1 KD1 KD2 (human)) of the same compound?
The residual activity was 97.9%.

What about the residual activity (TAOK3 (human)) of the same compound?
Its residual activity is 93%.

What about the residual activity (CSNK1G3 (human)) of the same compound?
Its residual activity is 96.7%.

What about the residual activity (PRKD2 (human)) of the same compound?
The residual activity was 96.9%.

What about the residual activity (MAPK11 (human)) of the same compound?
Its residual activity is 102%.

And the residual activity (IRAK4 (human))?
The residual activity was 97.7%.

And the residual activity (CAMK2D (human))?
The residual activity was 109%.

And the residual activity (ROCK2 (human))?
Its residual activity is 99.7%.

What about the residual activity (EPHA3 (human)) of the same compound?
Its residual activity is 92.7%.

What about the residual activity (EPHB1 (human)) of the same compound?
Its residual activity is 99.4%.

Which results are given for COc1cc2c(N3CCN(C(=O)Nc4ccc(OC(C)C)cc4)CC3)ncnc2cc1OCCCN1CCCCC1?
residual activity (RPS6KA3 KD1 KD2 (human)): 96.6%; residual activity (RPS6KA6 KD1 KD2 (human)): 106%; residual activity (CDC42BPA (human)): 106%; residual activity (MUSK (human)): 99.6%; residual activity (ROS1 (human)): 90.1%; residual activity (MLTK (human)): 99.7%; residual activity (ADRBK2 (human)): 97.6%; residual activity (NEK3 (human)): 103%; residual activity (PAK4 (human)): 103%; residual activity (IRAK1 (human)): 96.1%; residual activity (DYRK2 (human)): 107%; residual activity (SRMS (human)): 95.8%; residual activity (PNCK (human)): 97.7%; residual activity (PDGFRA (human)): 11.1%; residual activity (MARK2 (human)): 109%; residual activity (NEK9 (human)): 97.2%; residual activity (NUAK2 (human)): 100%; residual activity (CAMK2G (human)): 101%; residual activity (ZAP70 (human)): 116%; residual activity (VRK1 (human)): 100%; residual activity (STK17A (human)): 103%; residual activity (MELK (human)): 87.9%; residual activity (FGFR2 (human)): 99.8%; residual activity (NUAK1 (human)): 104%; residual activity (PASK (human)): 105%; residual activity (HIPK3 (human)): 101%; residual activity (PAK7 (human)): 87.5%; residual activity (NEK2 (human)): 101%; residual activity (GRK5 (human)): 106%; residual activity (CAMK1G (human)): 94.6%; residual activity (EPHA2 (human)): 102%; residual activity (STK39 (human)): 93.2%; residual activity (RPS6KA1 KD1 KD2 (human)): 94.8%; residual activity (TAOK3 (human)): 96.8%; residual activity (CSNK1G3 (human)): 95%; residual activity (PRKD2 (human)): 96.4%; residual activity (MAPK11 (human)): 105%; residual activity (IRAK4 (human)): 96%; residual activity (CAMK2D (human)): 106%; residual activity (ROCK2 (human)): 90.8%; residual activity (EPHA3 (human)): 94.7%; residual activity (EPHB1 (human)): 96.6%
